Experimental data published in patent US9630894B2, “Energy efficient method and apparatus for the extraction of biomolecules from dilute aqueous solution” (DYNASEP INC., priority 2012, dated 2017).

Assay: DME saturation concentration in fermentation broth
Type: physicochemical
Conditions: fermentation conditions of 38° C.

COC [DME, dimethyl ether]
amount of DME in the broth (saturation): ~2.3 wt. %
